Key:
BHK cells = assay: In vitro transfection of BHK cells with plasmid DNA-cationic lipid complexes (luciferase expression); assay type: cell-based, hamster; conditions: for transfection properties compared among DODAC, TODMAC6 and TODMAC3: complexes formed from ethanol solution, no DOPE, FIG. 4; for transfection potency relative to complexes containing DODAC: cationic lipid/DOPE vesicles, LO18 luciferase plasmid, FIG. 3
Method: Lipoplexes were prepared in distilled water at pDNA concentrations ranging from 12.5-25 μg pDNA/ml at positive-to-negative charge ratios between 0.5-5. Plasmid DNA was added under vortexing to cationic LUVs (cationic lipid/DOPE 1:1). In the absence of the helper lipid DOPE, lipoplexes were prepared by addition of the cationic lipids from ethanol solutions to an aqueous solution containing the pDNA. The amount of ethanol in these formulations was between 0.4-2.3%. The lipoplexes were incubated at room temperature for 30 min, diluted to a final concentration of 2.5 μg pDNA/ml with serum-free media (Dulbecco's Modified Eaglels Medium, DMEM) and subsequently applied to BHK cells.
BHK cells, grown in DMEM supplemented with 10% fetal calf serum (FCS), 100 U/ml of penicillin and 100 μg/ml of streptomycin, were seeded in 96-well plates at a density of 1×10^4 cells per well 24 h before transfection. The next day media was removed and replaced with 100 μl of lipoplexes dispersed in serum-free DMEM (0.25 μg pDNA/100 μl), After 4 hr, lipoplexes were replaced with serum-containing DMEM and cells further incubated for 20 h. After that, the culture medium was aspirated, the cells washed twice with 100 μl of PSS and then lysed through addition of 50 μl of lysis buffer (1% Triton X-100 in PBS). Luciferase activity was measured with a Dynex Luminometer (Dynex model ML3000) using the Luciferase Assay Kit from Promega. The total protein concentration per well was determined using the BCA assay from Pierce. Means and standard deviations were calculated from three independent experiments.
(§1) DNA plasmid complexes containing TODMAC3 and TODMAC6 are usually formed by mixing plasmid DNA with preformed vesicles containing the cationic lipid mixed with equimolar amounts of the- “helper” lipid- dioleoyfphosphatidylethanolamine (DOPE) (17, 1-8). […] FIG. 3 illustrates the transfection properties of complexes prepared at cationic lipid-to-DNA charge ratios (positive to negative) ranging from 0.5 to 5.
In order to test the relative transfection potencies of DODAC, TODMAC6 and TODMAC3 a different procedure was used to associate the cationic lipid with the plasmid to form the complexes. In this method the cationic lipid dissolved in ethanol was introduced into an aqueous solution of the plasmid and DOPE was not present. […] Specifically, for charge ratios −2.5, TODMAC6 complexes gave rise to luciferase expression levels 5-20 fold higher than could be achieved with DODAC or TODMAC3.

[1] = 31P NMR polymorphic phase properties of cationic lipid/DPPS mixtures (bilayer-to-non-bilayer transition); assay type: physicochemical; conditions: for temperature at which the mixture adopts the H∥ phase / non-bilayer structure: mixture with DPPS equimolar with respect to charge, hydrated in distilled water; for 31P NMR lineshape (phase structure) at 25° C.: mixture with DPPS
Excerpt: As noted above, the ability of cationic lipids to induce the hexagonal H∥ phase in combination with anionic lipids correlates well with their transfection properties in plasmid DNA-cationic lipid complexes. The relative ability of cationic lipids to induce the H∥ phase can be ascertained by measuring the bilayer-to-non-bilayer transition temperature (Tc) of the cationic lipid in equimolar mixtures (with respect to charge) with an anionic phospholipid such as 1,2-dipalmitoyl-sn-glycero-3-[phospho-L-serine] (DPPS). The bilayer-to-non-bilayer transition can be conveniently monitored employing ^31P NMR techniques (12).
To evaluate the polymorphic phase properties of mixtures of TODMAC3 and TODMAC6 with DPPS, lipid mixtures containing 40-50 mg DPPS and appropriate molar ratios of cationic lipids N,N-dioleyl-N-N-dimethylammonium chloride (DODAC), TODMAC3, and TODMAC6 were prepared by drying from chloroform solution, placed in 10 mm NMR tubes and hydrated with 1.5 mL distilled water. Free induction decays (FIDs) corresponding to 1000 scans were obtained by using a […] 60° pulse with a […] interpulse delay and a spectral width of 25,000 Hz. A gated two-level proton decoupling was used to ensure sufficient decoupling with minimum sample heating. An exponential multiplication corresponding to 50 Hz of line broadening was applied to the FIDs prior to Fourier transformation. The sample temperature (±1° C.) was regulated using a Bruker B-VT1000 variable temperature unit. Chemical shifts were referenced to 85% phosphoric acid as an external standard.

[2] = Preparation of vesicles / bilayer structures on dispersion in aqueous medium; assay type: physicochemical; conditions: for preparation of vesicles from cationic lipid/DOPE mixtures: equimolar mixture with DOPE, hydration of lipid film and extrusion; for formation of bilayer structures on dispersion in an aqueous medium: in the presence and absence of DOPE
Method: To prepare large unilamellar vesicles (LUV), mixtures of cationic lipids and DOPE in chloroform were dried under a stream of nitrogen gas and the residual solvent removed under high vacuum for 2 hours. The resulting lipid films were hydrated with distilled water. LUVs were obtained by extruding the lipid dispersions 10 times through two stacked 100-nm pore size polycarbonate filters (Costar Nuclepore polycarbonate membrane, Lipex Biomembranes extruder) (15). Phospholipid concentrations were determined by the inorganic phosphorus assays according to Fiske and Subbarow (16).
as §1

CCCCCCCC/C=C\CCCCCCCC[N+](C)(C)CCCCCCCC/C=C\CCCCCCCC.[Cl-] [DODAC, N,N-dioleyl-N-N-dimethylammonium chloride, reference compound]
transfection properties compared among DODAC, TODMAC6 and TODMAC3 (BHK cells; charge ratios of two and lower): superior | temperature at which the mixture adopts the H∥ phase / non-bilayer structure ([1]; 31P NMR): > 35 °C | 31P NMR lineshape (phase structure) at 25° C. [1]: bilayer structure

CCCCCCCC/C=C\CCCCCCCC[N+](C)(CCCCCCCC/C=C\CCCCCCCC)CCC[N+](C)(CCCCCCCC/C=C\CCCCCCCC)CCCCCCCC/C=C\CCCCCCCC.[Cl-].[Cl-] [TODMAC3, N,N,N1,N1-Tetraoleyl.N,N′-dimethyl-1,3-propanediammonium Chloride]
temperature at which an H∥ component is visible (limited subset of the DPPS; bulk remains bilayer) ([1]; TODMAC3/DPPS 0.5:1 mol:mol (equimolar in charge), 31P NMR): ≤ 15 °C | temperature of apparently complete H∥ organization ([1]; TODMAC3/DPPS ratio 2:1 on a charge basis): ≥ 25 °C | phase properties of equimolar mixture with DPPS ([1]; equimolar (mol) proportions of TODMAC3 and DPPS, compared with 0.5:1): increased preference for H∥ phase structure | preparation of vesicles from cationic lipid/DOPE mixtures [2]: could not be prepared | formation of bilayer structures on dispersion in an aqueous medium [2]: does not

CCCCCCCC/C=C\CCCCCCCC[N+](C)(CCCCCCCC/C=C\CCCCCCCC)CCCCCC[N+](C)(CCCCCCCC/C=C\CCCCCCCC)CCCCCCCC/C=C\CCCCCCCC.[Cl-].[Cl-] [TODMAC6, N,N,N′,N′-Tetraoleyl-N,N′-dimethyl-1,6-hexanediammonium chloride]
transfection potency relative to complexes containing DODAC (BHK cells; charge ratios higher than two (up to 5)): greater | transfection potency relative to complexes containing DODAC (BHK cells; charge ratios of two or lower): comparable to or slightly lower | transfection properties compared among DODAC, TODMAC6 and TODMAC3 (BHK cells; charge ratios above two): superior to both DODAC and TODMAC3 | luciferase expression levels higher than could be achieved with DODAC or TODMAC3 (BHK cells; complexes without DOPE, charge ratios −2.5): 5-20 fold | temperature at which the mixture adopts the H∥ phase / non-bilayer structure ([1]; 31P NMR): ~30 °C | 31P NMR lineshape (phase structure) at 25° C. [1]: bilayer structure | preparation of vesicles from cationic lipid/DOPE mixtures [2]: could be readily prepared | formation of bilayer structures on dispersion in an aqueous medium [2]: readily forms bilayer structures
